{
  "source": "patent US6627732B1",
  "about": "“Glutathione derivatives and their dosage forms” (Teijin Limited, priority 1998, dated 2003)",
  "key": {"swine liver esterase": {"tested_on": "swine liver esterase", "assay": "Decomposition of glutathione derivatives by swine liver esterase (physiological stability)", "type": "in vitro ADME", "details": "BSA/D-PBS pH 7.4, 196-244 μg/ml", "protocol": "(§1) (1) Bovine serum albumin (hereinafter referred to as BSA), Dulbecco's phosphate buffered saline (hereinafter referred to as D-PBS), swine liver esterase, and rabbit liver esterase were purchased from Sigma, 6-week old male SD rats were purchased from Nippon SLC, and 12-week old or older male Japanese white rabbits were purchased from Ichikawaya. On the day of the incubation experiment described below, blood was drawn from the animals in the presence of heparin, and plasma was separated therefrom for use. Human plasma was obtained from normal healthy males after obtaining their consent.\n(§2) (2) The glutathione derivatives described in the Examples and Comparative Examples of the present invention were incubated for a fixed time in an enzyme solution having the following composition. Acetonitrile was added to the reaction mixture to inactivate the enzyme thereby to stop the reaction. The concentration of the glutathione derivatives in the deproteinized supernatant was measured by HPLC. For each time point of the esterase enzyme experiment, the mean values from two measurement or more were determined, and for the rats and rabbits the mean values of plasma samples from three individuals were determined. For some of the experiment data, changes with time of percentages relative to initial concentration of the glutathione derivative are shown in FIGS. 2 to 4.\nSwine liver esterase and rabbit liver esterase experiment\n30 mg-BSA/ml-D-PBS (pH 7.4): 36 to 45 parts\nSwine or rabbit liver esterase/D-PBS: 4-5 parts\n10 mg-glutathione derivative/ml-ethanol: one part (the final concentration in the reaction mixture is 196-244 μg/ml)"}, "[1]": {"assay": "Stability in rabbit plasma", "details": "rabbit, plasma", "protocol": "as §1, §2\n(§3) Rat, rabbit, and human plasma\n(§4) Heparinized plasma: 30 to 40 parts\n10 mg-glutathione derivative/ml-ethanol: one part (the final concentration in the reaction mixture is 250-323 μg/ml)"}, "[2]": {"assay": "Stability in human plasma", "type": "in vitro ADME", "details": "heparinized plasma, 250-323 μg/ml", "text": "as §3, §4"}, "[3]": {"tested_on": "human leukemia cell HL-60", "assay": "HL-60 cell differentiation induction, NBT reducing activity (Example 20)", "type": "cell-based", "details": "4 days", "protocol": "Using the differentiation induction effect on the granulocytes or monocytes/macrophages obtained by culturing the human leukemia cell HL-60 in the presence of 9-cys-retinoic acid (9-cis-RA) or activated vitamin D3 (1α, 25(OH)2D3), and in the coexistence of the glutathione derivatives of Examples and the Comparative Examples of the present invention, the growth-promotion activity was tested.\n(1) HL-60 cells used were purchased from the cell bank (Japanese Cancer Research Resource Bank, Cell No. JCRBOO85). In accordance with a standard method, the lyophilized cell stocks that were thawed before the start of the experiment and subcultured were used.\nSubculturing was carried out by centrifuging (1500 rpm, 5 minutes) the cells in suspension culture and recovering and by diluting it in a fresh culture liquid at a concentration of about 1/100 (1 to 2×10^4 cells/ml). As the culture liquid, an RPMI 1640 medium containing 10% fetal bovine serum was used.\n(2) The cells subcultured in (1) were recovered by centrifugation (1500 rpm, 5 minutes), and were dispersed in the culture liquid at 2×10^4 cells/ml, which were plated on a 24-well culture plate at 1 ml/well. To this system were added the glutathione derivatives of Example 4, Example 11, Comparative Example 1 and Comparative Example 2 and a differentiation induction substance (9-cis-RA or 1α, 25(OH)2D3). Thus, 1 μl per well each of an ethanol solution of the differentiation induction substances 9-cis-RA and 1α, 25(OH)2D3 were added at 5×10^−6 M and 2×10^−6 M, respectively. Then, 1 μl per well each of ethanol solutions of the glutathione derivatives at 1×10^−4 M to 1×10^−2 M was added. As the solvent treatment for the control, 1 μl of ethanol per well was added in stead of the glutathione derivative, and as the single treatment of glutathione derivatives, 1 μl of ethanol per well was added in stead of the differentiation induction substance. After culturing at 37° C. and 5% CO2 for 4 days, the cells were recovered by centrifugation (1500 rpm, 5 minutes).\n(3) The measurement of a nitroblue tetrazolium (NBT) reducing activity which is often used for the evaluation of differentiation induction effects on monocytes/macrophages or granulocytic cells was carried out according to the following procedure. Thus, the cells recovered by centrifugation in (2) were suspended in a fresh culture medium, and then NBT was added thereto to […] and 12-O-tetradecanoyl phorbol-13-acetate to 100 nM. After incubating at 37° C. for 25 minutes, cytospin samples were prepared. After air drying, the cells were subjected to Kernechtrot stain, and 500 cells per sample were examined under alight microscope to determine the ratio of the NBT reduction activity-positive cells.\n(4) The result of the experiment in which glutathione derivatives at 10^−7 to 10^−5 M were treated together with a differentiation induction substances is shown in Table 4. For a single treatment of each glutathione derivative up to 10^−5 M, no increases in the NBT reducing activity was observed. In a combined treatment of a glutathione derivative and a differentiation induction substance, an enhanced ratio of the NBT reduction activity-positive cells relative to the single treatment with a differentiation induction substance was observed depending on the concentration of the glutathione derivative. There were no major differences observed in the strength of effects between the glutathione derivatives of Examples 4 and 11 and Comparative Examples 1, and 2."}, "[4]": {"details": "compound 10^−5 M, Solvent control (EtOH), no differentiation induction substance"}, "[5]": {"details": "compound 10^−5 M, with 1α,25(OH)2D3 (2 × 10^−9 M)"}, "[6]": {"details": "compound 10^−5 M, with 9-cis-RA (5 × 10^−9 M)"}, "[7]": {"details": "compound 10^−6 M, Solvent control (EtOH), no differentiation induction substance"}, "[8]": {"details": "compound 10^−6 M, with 1α,25(OH)2D3 (2 × 10^−9 M)"}, "[9]": {"details": "compound 10^−6 M, with 9-cis-RA (5 × 10^−9 M)"}, "[10]": {"details": "compound 10^−7 M, Solvent control (EtOH), no differentiation induction substance"}, "[11]": {"details": "compound 10^−7 M, with 1α,25(OH)2D3 (2 × 10^−9 M)"}, "[12]": {"details": "compound 10^−7 M, with 9-cis-RA (5 × 10^−9 M)"}},
  "data": [
    {"smiles": "CCOC(=O)[C@@H](N)CCC(=O)N[C@@H](CSCc1ccccc1)C(=O)N[C@@H](C(=O)OCC)c1ccccc1.Cl", "note": "[Comparative Example 1, Glu(Cys(Bzl)-D-Phg-O(Et))-O(Et)hydrochloride, reference compound]", "values": [
      {"measurement": "Decomposition rate constant by swine liver esterase", "setting": "swine liver esterase", "value": "121 10^−4/unit/min"},
      {"measurement": "Half life in rabbit plasma", "setting": "[1]", "value": 6.53, "unit": "h"},
      {"measurement": "Half life in human plasma", "setting": "[2]", "value": 10.7, "unit": "h"},
      {"measurement": "Ratio of NBT reduction activity-positive cells", "setting": "[3]; [4]", "value": 0.4, "unit": "%"},
      {"measurement": "Ratio of NBT reduction activity-positive cells", "setting": "[3]; [5]", "value": 13.0, "unit": "%"},
      {"measurement": "Ratio of NBT reduction activity-positive cells", "setting": "[3]; [6]", "value": 18.8, "unit": "%"},
      {"measurement": "Ratio of NBT reduction activity-positive cells", "setting": "[3]; [7]", "value": 0.2, "unit": "%"},
      {"measurement": "Ratio of NBT reduction activity-positive cells", "setting": "[3]; [8]", "value": 7.6, "unit": "%"},
      {"measurement": "Ratio of NBT reduction activity-positive cells", "setting": "[3]; [9]", "value": 10.1, "unit": "%"},
      {"measurement": "Ratio of NBT reduction activity-positive cells", "setting": "[3]; [10]", "value": 0.2, "unit": "%"},
      {"measurement": "Ratio of NBT reduction activity-positive cells", "setting": "[3]; [11]", "value": 5.4, "unit": "%"},
      {"measurement": "Ratio of NBT reduction activity-positive cells", "setting": "[3]; [12]", "value": 6.3, "unit": "%"}
    ]},
    {"smiles": "CCCCCCCCOC(=O)[C@H](NC(=O)[C@H](CSCc1ccccc1)NC(=O)CC[C@H](N)C(=O)OCC)c1ccccc1.Cl", "note": "[Comparative Example 2, Glu(Cys(Bzl)-D-Phg-O(Octyl))-O(Et)hydrochloride, reference compound]", "values": [
      {"measurement": "Decomposition rate constant by swine liver esterase", "setting": "swine liver esterase", "value": "364 10^−4/unit/min"},
      {"measurement": "Half life in rabbit plasma", "setting": "[1]", "value": 3.97, "unit": "h"},
      {"measurement": "Half life in human plasma", "setting": "[2]", "value": 10.3, "unit": "h"},
      {"measurement": "Ratio of NBT reduction activity-positive cells", "setting": "[3]; [4]", "value": 0.6, "unit": "%"},
      {"measurement": "Ratio of NBT reduction activity-positive cells", "setting": "[3]; [5]", "value": 18.2, "unit": "%"},
      {"measurement": "Ratio of NBT reduction activity-positive cells", "setting": "[3]; [6]", "value": 33.2, "unit": "%"},
      {"measurement": "Ratio of NBT reduction activity-positive cells", "setting": "[3]; [7]", "value": 0.4, "unit": "%"},
      {"measurement": "Ratio of NBT reduction activity-positive cells", "setting": "[3]; [8]", "value": 9.3, "unit": "%"},
      {"measurement": "Ratio of NBT reduction activity-positive cells", "setting": "[3]; [9]", "value": 15.2, "unit": "%"},
      {"measurement": "Ratio of NBT reduction activity-positive cells", "setting": "[3]; [10]", "value": 0.2, "unit": "%"},
      {"measurement": "Ratio of NBT reduction activity-positive cells", "setting": "[3]; [11]", "value": 4.6, "unit": "%"},
      {"measurement": "Ratio of NBT reduction activity-positive cells", "setting": "[3]; [12]", "value": 7.4, "unit": "%"}
    ]},
    {"smiles": "CCCCCCCCCCCCCCCCOC(=O)[C@@H](N)CCC(=O)N[C@@H](CSCc1ccccc1)C(=O)N[C@@H](C(=O)OCC)c1ccccc1.Cl", "note": "[Example 4, Glu(Cys(Bzl)-D-Phg-OEt)-O(Hexadecyl)hydrochloride]", "values": [
      {"measurement": "Decomposition rate constant by swine liver esterase", "setting": "swine liver esterase", "value": "0.466 10^−4/unit/min"},
      {"measurement": "Half life in rabbit plasma", "setting": "[1]", "value": 22.05, "unit": "h"},
      {"measurement": "Half life in human plasma", "setting": "[2]", "value": 184.77, "unit": "h"},
      {"measurement": "Ratio of NBT reduction activity-positive cells", "setting": "[3]; [4]", "value": 0.2, "unit": "%"},
      {"measurement": "Ratio of NBT reduction activity-positive cells", "setting": "[3]; [5]", "value": 31.3, "unit": "%"},
      {"measurement": "Ratio of NBT reduction activity-positive cells", "setting": "[3]; [6]", "value": 18.0, "unit": "%"},
      {"measurement": "Ratio of NBT reduction activity-positive cells", "setting": "[3]; [7]", "value": 0.2, "unit": "%"},
      {"measurement": "Ratio of NBT reduction activity-positive cells", "setting": "[3]; [8]", "value": 10.3, "unit": "%"},
      {"measurement": "Ratio of NBT reduction activity-positive cells", "setting": "[3]; [9]", "value": 10.4, "unit": "%"},
      {"measurement": "Ratio of NBT reduction activity-positive cells", "setting": "[3]; [10]", "value": 0.2, "unit": "%"},
      {"measurement": "Ratio of NBT reduction activity-positive cells", "setting": "[3]; [11]", "value": 5.7, "unit": "%"},
      {"measurement": "Ratio of NBT reduction activity-positive cells", "setting": "[3]; [12]", "value": 6.7, "unit": "%"}
    ]}
  ]
}
